This note sets out measurements from patent publication US20050148627A1, “Benzopyran compounds for use in the treatment and prevention of inflammation related conditions” (priority 2003, published 2005).

The assay concerns the target COX-1 (Homo sapiens, UniProt P23219). Description: biochemical.

Values joined by “and” are separate entries in the source; they are usually repeats but may differ in a detail not shown here. Equal values may be shown once.

COX-1, sequence (P23219 24-599): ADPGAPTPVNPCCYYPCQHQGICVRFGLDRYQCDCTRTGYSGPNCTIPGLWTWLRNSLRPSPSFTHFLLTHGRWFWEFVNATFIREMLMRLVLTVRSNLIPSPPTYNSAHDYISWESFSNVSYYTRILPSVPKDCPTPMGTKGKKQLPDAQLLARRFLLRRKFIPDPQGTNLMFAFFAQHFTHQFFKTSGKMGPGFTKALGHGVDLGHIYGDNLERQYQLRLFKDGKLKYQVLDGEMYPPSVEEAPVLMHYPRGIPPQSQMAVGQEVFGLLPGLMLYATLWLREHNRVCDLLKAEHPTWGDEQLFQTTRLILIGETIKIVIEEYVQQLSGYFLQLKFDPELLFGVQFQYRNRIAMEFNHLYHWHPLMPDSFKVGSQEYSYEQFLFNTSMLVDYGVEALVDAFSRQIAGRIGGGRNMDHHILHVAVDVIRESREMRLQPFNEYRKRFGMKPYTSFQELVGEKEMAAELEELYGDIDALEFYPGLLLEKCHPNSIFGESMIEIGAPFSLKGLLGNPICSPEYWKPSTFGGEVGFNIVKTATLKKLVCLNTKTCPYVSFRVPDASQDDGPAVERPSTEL

As a reminder, the IC50 is the concentration that gives 50% inhibition. A high value points to a need for much substance. For `COc1ccc(Br)c2c1OC(C(F)(F)F)C(C(=O)O)=C2` (centres unmarked) [Example 24a, 5-bromo-8-methoxy-2-(trifluoromethyl)-2H-chromene-3-carboxylic acid], the IC50 is > 500 µM.

Take `CC(C)c1cc2c(cc1Cl)C=C(C(=O)O)C(C(F)(F)F)O2` (centres unmarked) [Example 9f, 6-chloro-7-isopropyl-2-(trifluoromethyl)-2H-chromene-3-carboxylic acid]: the IC50 is 147 µM and > 100 µM.

For the molecule `Cc1cc(Br)c2c(c1)C=C(C(=O)O)C(C(F)(F)F)N2` (centres unmarked) [Example 46, 8-Bromo-6-methyl-2-(trifluoromethyl)-1,2-dihydroquinoline-3-carboxylic acid], the IC50 is > 100 µM.

For the molecule `Cc1cc(Cl)cc2c1NC(C(F)(F)F)C(C(=O)O)=C2` (centres unmarked) [Example 47, 6-chloro-8-methyl-2-(trifluoromethyl)-1,2-dihydroquinoline-3-carboxylic acid], the IC50 was > 500 µM.

`CCCCSc1cc2c(cc1Cl)C=C(C(=O)O)C(C(F)(F)F)O2` (centres unmarked) [Example 7f, 7-(butylthio)-6-chloro-2-(trifluoromethyl)-2H-chromene-3-carboxylic acid]: the IC50 was found to be 70.8 µM.

`CCCCOc1c(Cl)c(Cl)c(Cl)c2c1OC(C(F)(F)F)C(C(=O)O)=C2` (centres unmarked) [Example 28b, 8-butoxy-5,6,7-trichloro-2-(trifluoromethyl)-2H-chromene-3-carboxylic acid] came in with an IC50 of 41.7 µM.

Consider `COCCOc1ccc2c(c1)OC(C(F)(F)F)C(C(=O)O)=C2` (centres unmarked) [Example 5e, 7-(2-methoxyethoxy)-2-(trifluoromethyl)-2H-chromene-3-carboxylic acid], for which the concentration for half-maximal inhibition (IC50) is > 100 µM.

As for `COc1cccc(Cc2ccc3c(c2)OC(C(F)(F)F)C(C(=O)O)=C3)c1` (centres unmarked) [Example 9w, 7-(3-methoxybenzyl)-2-(trifluoromethyl)-2H-chromene-3-carboxylic acid], the IC50 is > 100 µM.

With `CCN(C)c1cc2c(cc1Cl)C=C(C(=O)O)C(C(F)(F)F)O2` (centres unmarked) [Example 8f, 6-chloro-7-[ethyl(methyl)amino]-2-(trifluoromethyl)-2H-chromene-3-carboxylic acid], the IC50 is > 100 µM.

In the case of `COc1ccc2c(c1OC)OC(C(F)(F)F)C(C(=O)O)=C2` (centres unmarked) [Example 4a, 7,8-dimethoxy-2-(trifluoromethyl)-2H-chromene-3-carboxylic acid], the IC50 is > 500 µM.

For `CCC(CC)COc1ccc(Cl)c2c1OC(C(F)(F)F)C(C(=O)O)=C2` (centres unmarked) [Example 23b, 5-chloro-8-(2-ethylbutoxy)-2-(trifluoromethyl)-2H-chromene-3-carboxylic acid], the IC50 is 159 µM and > 100 µM.

For the molecule `COc1c(Cl)cc2c(c1C)OC(C(F)(F)F)C(C(=O)O)=C2` (centres unmarked) [Example 3a, 6-chloro-7-methoxy-8-methyl-2-(trifluoromethyl)-2H-chromene-3-carboxylic acid], the IC50 is > 100 µM.

`C=C(C)c1cc2c(cc1Cl)C=C(C(=O)O)C(C(F)(F)F)O2` (centres unmarked) [Example 113, 6-chloro-7-isopropenyl-2-(trifluoromethyl)-2H-chromene-3-carboxylic acid]: the IC50 was > 100 µM.

With `CCCCC(C)(C)c1cc2c(cc1Cl)C=C(C(=O)O)C(C(F)(F)F)O2` (centres unmarked) [Example 110, 6-chloro-7-(1,1-dimethylpentyl)-2-(trifluoromethyl)-2H-chromene-3-carboxylic acid], the IC50 is 16.1 µM and 13.1 µM.

For `CCCN(CC1CC1)c1cc2c(cc1Cl)C=C(C(=O)O)C(C(F)(F)F)O2` (centres unmarked) [Example 8g, 6-chloro-7-[(cyclopropylmethyl)(propyl)amino]-2-(trifluoromethyl)-2H-chromene-3-carboxylic acid], the IC50 was > 100 µM and 194 µM.

In the case of `O=C(O)C1=Cc2cccc(OCc3ccccc3)c2OC1C(F)(F)F` (centres unmarked) [Example 25g, 8-(benzyloxy)-2-(trifluoromethyl)-2H-chromene-3-carboxylic acid], the IC50 was > 100 µM and 80.7 µM.

With `COc1cc(Cl)c2c(c1)C=C(C(=O)O)[C@H](C(F)(F)F)O2` (single isomer, unassigned) [Example 17h], the IC50 was > 100 µM.

On to `Cc1cc(Cl)cc2c1O[C@H](C(F)(F)F)C(C(=O)O)=C2` (single isomer, unassigned) [Example 21t], for which the IC50 was 32.3 µM and 7.18 µM and 6.42 µM and 8.06 µM and 18.4 µM.

As to `CCC(CC)COc1cc2c(cc1Cl)C=C(C(=O)O)C(C(F)(F)F)O2` (centres unmarked) [Example 2c, 6-chloro-7-(2-ethylbutoxy)-2-(trifluoromethyl)-2H-chromene-3-carboxylic acid], the half-maximal inhibitory concentration (IC50) amounted to 51.6 µM.

For the molecule `CCCC(C)(C)c1ccc2c(c1)OC(C(F)(F)F)C(C(=O)O)=C2` (centres unmarked) [Example 108, 7-(1,1-dimethylbutyl)-2-(trifluoromethyl)-2H-chromene-3-carboxylic acid], the IC50 was > 100 µM and 169 µM.

In the case of `O=C(O)C1=Cc2cc(Cl)c(CCc3ccc(Cl)cc3)cc2OC1C(F)(F)F` (centres unmarked) [Example 9j, 6-chloro-7-[2-(4-chlorophenyl)ethyl]-2-(trifluoromethyl)-2H-chromene-3-carboxylic acid], the IC50 was 11.4 µM and 14 µM.

In the case of `CCCOc1cccc2c1OC(C(F)(F)F)C(C(=O)O)=C2` (centres unmarked) [Example 25e, 8-propoxy-2-(trifluoromethyl)-2H-chromene-3-carboxylic acid], the IC50 is > 100 µM.

With `CCc1cc(OC(F)(F)F)cc2c1O[C@H](C(F)(F)F)C(C(=O)O)=C2` (single isomer, unassigned) [Example 21k], the IC50 is 23.4 µM and 27 µM and 9.26 µM and 11 µM.

Take `Cc1cc(Cl)cc2c1O[C@@H](C(F)(F)F)C(C(=O)O)=C2` (single isomer, unassigned) [Example 21u]: the IC50 was > 100 µM.

As for `CCCOc1ccc(Cl)c2c1OC(C(F)(F)F)C(C(=O)O)=C2` (centres unmarked) [Example 23a, 5-chloro-8-propoxy-2-(trifluoromethyl)-2H-chromene-3-carboxylic acid], the IC50 was > 500 µM.

With `CCCC(C)(C)c1cc2c(cc1Cl)C=C(C(=O)O)C(C(F)(F)F)O2` (centres unmarked) [Example 111, 6-chloro-7-(1,1-dimethylbutyl)-2-(trifluoromethyl)-2H-chromene-3-carboxylic acid], the IC50 was 9.16 µM and 9.17 µM.

Take `CCOc1c(Cl)c(Br)c(Cl)c2c1OC(C(F)(F)F)C(C(=O)O)=C2` (centres unmarked) [Example 27, 6-bromo-5,7-dichloro-8-ethoxy-2-(trifluoromethyl)-2H-chromene-3-carboxylic acid]: the concentration for half-maximal inhibition (IC50) is > 100 µM and 198 µM.

Turning to `O=C(O)C1=Cc2cc(OCc3ccccc3)cc(Cl)c2OC1C(F)(F)F` (centres unmarked) [Example 17d, 6-(benzyloxy)-8-chloro-2-(trifluoromethyl)-2H-chromene-3-carboxylic acid], the IC50 was 0.365 µM and < 0.137 µM.

For `C#Cc1cc(OC(F)(F)F)cc2c1OC(C(F)(F)F)C(C(=O)O)=C2` (centres unmarked) [Example 21f, 8-ethynyl-6-(trifluoromethoxy)-2-(trifluoromethyl)-2H-chromene-3-carboxylic acid], the IC50 is < 0.137 µM and 0.0312 µM.

In the case of `O=C(O)C1=Cc2cc(OC(F)(F)F)cc(CCc3ccccc3)c2OC1C(F)(F)F` (centres unmarked) [Example 21o, 8-(2-phenylethyl)-6-(trifluoromethoxy)-2-(trifluoromethyl)-2H-chromene-3-carboxylic acid], the IC50 is 54.8 µM and 68.2 µM.

Take `CCCC#Cc1cc(OC(F)(F)F)cc2c1OC(C(F)(F)F)C(C(=O)O)=C2` (centres unmarked) [Example 21e, 8-pent-1-ynyl-6-(trifluoromethoxy)-2-(trifluoromethyl)-2H-chromene-3-carboxylic acid]: the half-maximal inhibitory concentration (IC50) was 6.52 µM and 3.06 µM.

Turning to `CCC(C)(C)c1ccc2c(c1)OC(C(F)(F)F)C(C(=O)O)=C2` (centres unmarked) [Example 106, 7-tert-pentyl-2-(trifluoromethyl)-2H-chromene-3-carboxylic acid], the IC50 was > 100 µM and 93 µM.
